Results as given in US12187705B2, “Heteroaryl-triazole and heteroaryl-tetrazole compounds as pesticides” (Bayer Aktiengesellschaft, priority 2018, dated 2025).

Tests used:
Type in all cases: in vivo
Ctenocephalides felis = Ctenocephalides felis in-vitro contact test adult cat flea; details: Ctenocephalides felis; 5 μg/cm^2 (=500 g/ha), after 48 hours; read-out: efficacy (fleas dead or moribund)
Summary of the method: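 Efficacy (% dead or moribund) was scored 48 h after adult Ctenocephalides felis were confined in tubes coated with the acetone-applied compound (900 ppm, 5 μg/cm^2). Moribund status was judged by failure to escape a 45-50° C heating plate within 5 minutes.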

Nezara viridula = Nezara viridula spray test; details: in Hordeum vulgare, 96 h
Summary of the method: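 Barley plants infested with stink bug larvae were sprayed with compound diluted in water containing 1000 ppm emulsifier. Mortality (%) was scored after 4 days, 100% meaning all bugs killed.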

Nilaparvata lugens = Nilaparvata lugens spray test; details: Nilaparvata lugens, in Oryza sativa, 96 h
Summary of the method: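 Rice plants sprayed with compound diluted in water containing 1000 ppm emulsifier, then infested with brown planthopper. Mortality (%) scored after 4 days, 100% meaning all insects killed.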

Tetranychus urticae = Tetranychus urticae spray test OP-resistant; details: Tetranychus urticae, foliar, 144 h, French bean leaf disks, after 6 days
Protocol: Tetranychus urticae—Spray Test OP-Resistant
To produce a suitable preparation of active compound, 1 part by weight of active compound is mixed with the stated amount of solvents and is diluted with water, containing an emulsifier concentration of 1000 ppm, to the desired concentration. Further test concentrations are prepared by dilution with emulsifier containing water.
French bean (Phaseolus vulgaris) leaf disks infected with all instars of the two spotted spidermite (Tetranychus urticae), are sprayed with a preparation of the active ingredient of the desired concentration.
After 6 days mortality in % is determined. 100% means all spider mites have been killed and 0% means none of the spider mites have been killed.

[1] = system: Culex quinquefasciatus strain P00; test: Culex quinquefasciatus test (CULXFA surface treatment & contact assay); details: 24 hours after contact, read-out: efficacy (mortality); for mortality at 4 mg/m2: surface concentration 4 mg/m^2, 30 minutes exposure; for mortality at 20 mg/m2: surface concentration 20 mg/m^2, 30 minutes exposure
Summary of the method: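 Compound dissolved in acetone (2 mg/ml) with 2000 ppm rapeseed oil methyl ester, applied to glazed tile and dried. Adult strain P00 mosquitoes exposed to the surface for 30 minutes. Percent mortality scored 24 hours after contact.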

[2] = system: cattle ticks (Boophilus microplus) strane Parhurst, SP-resistant; test: Boophilus microplus dip test; details: 100 ppm, egg deposition after 7 days
Protocol: Boophilus microplus—Dip Test
Test animal: cattle ticks (Boophilus microplus) strane Parhurst, SP-resistant
Solvent: dimethyl sulfoxide
To produce a suitable preparation of active compound, 10 mg of active compound are dissolved in 0.5 ml solvent, and the concentrate is diluted with water to the desired concentration.
This compound solution is pipetted into tubes. 8-10 engorged, adult, female cattle ticks (Boophilus microplus) are placed in perforated tubes. These tubes are immersed in the aqueous compound solution until the ticks are completely moistened. After the liquid has drained off, the ticks are transferred to a filter paper in a plastic tray and stored in a climate chamber.
After 7 days egg deposition of fertile eggs is monitored. Eggs where fertility is not visible are stored in a climate chamber till hatching after about 42 days. An efficacy of 100% means all eggs are infertile; 0% means all eggs are fertile.

[3] = system: Anopheles funestus strain FUMOZ-R; test: Anopheles funestus test (ANPHFU surface treatment & contact assay); details: surface concentration 20 mg/m^2, 30 minutes exposure, 24 hours after contact, read-out: efficacy (mortality)
Summary of the method: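 Compound dissolved in acetone (2 mg/ml) with 2000 ppm rapeseed oil methyl ester, dried onto glazed tile; adult Anopheles funestus FUMOZ-R exposed for 30 minutes. Percent mortality scored 24 hours after contact.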

| SMILES | pest or weed control at 5 µg/cm2, 5 µg/cm2 (Ctenocephalides felis) | mortality at 500 g/ha (Nezara viridula) | mortality at 500 g/ha (Nilaparvata lugens) | mortality at 500 g/ha (Tetranychus urticae) | mortality at 4 mg/m2 [1] | mortality at 20 mg/m2 [1] | efficacy (infertile eggs) [2] | mortality at 20 mg/m2 [3] |
| --- | --- | --- | --- | --- | --- | --- | --- | --- |
| CCN(C(=O)c1cc(Cl)cc(S(C)(=O)=O)c1)C(C)c1ncnn1-c1ncccn1 (centres unmarked) [Example I-040, 3-chloro-N-ethyl-5-(methylsulfonyl)-N-{1-[1-(pyrimidin-2-yl)-1H-1,2,4-triazol-5-yl]ethyl}benzamide] | 100% | 100% | 100% | 90% | 80 to 100% | 80 to 100% |  |  |
| C[C@@H](NC(=O)c1cc(Cl)cc(S(=O)(=O)C2CC2)c1)c1ncnn1-c1ncccn1 [Example I-042] | 100% | 100% | 100% | 90% | 80 to 100% | 80 to 100% | 100% | 85 to 100% |
